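Interpolation was linear, between the two tested concentrations surrounding the appropriate level; five concentrations were tested over 48 hours in 96-well plates. Here, GI50 denotes the concentration required for 50% inhibition of growth. TGI: total growth inhibition.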
How the values were obtained:
Experiment in all cases: inhibition of tumour cell growth, NCI panel, 48 h; in the data active = GI50 below about 0.43 µM; inactive = the rest
[1] = test system: MALME-3M melanoma
[2] = test system: LOX IMVI melanoma
[3] = test system: NCI-H522 lung
[4] = test system: UACC-257 melanoma
[5] = test system: NCI-H460 lung
[6] = test system: CAKI-1 renal
[7] = test system: SF-295 CNS
[8] = test system: UACC-62 melanoma
[9] = test system: HS 578T breast
[10] = test system: HCT-15 colon
[11] = test system: PC-3 prostate
[12] = test system: UO-31 renal
[13] = test system: U251 CNS
[14] = test system: MOLT-4 leukemia
[15] = test system: HOP-62 NSCLC
[16] = test system: BT-549 breast
[17] = test system: K-562 leukemia
[18] = test system: NCI/ADR-RES ovarian
[19] = test system: ACHN renal
[20] = test system: SNB-75 CNS
[21] = test system: 786-0 renal
[22] = test system: SK-MEL-5 melanoma
[23] = test system: A498 renal
[24] = test system: MDA-MB-435
[25] = test system: MDA-MB-231 breast
[26] = test system: SR leukemia
[27] = test system: MCF7 breast
[28] = test system: SK-MEL-28 melanoma
[29] = test system: COLO 205 colon
[30] = test system: HOP-92 NSCLC
[31] = test system: DU-145 prostate
[32] = test system: T-47D breast
[33] = test system: SW-620 colon
[34] = test system: TK-10 renal
[35] = test system: SF-268 CNS
[36] = test system: RXF 393 renal
[37] = test system: SF-539 CNS
[38] = test system: HCC-2998 colon
[39] = test system: CCRF-CEM leukemia
[40] = test system: A549 NSCLC
[41] = test system: HL-60(TB) leukemia
[42] = test system: OVCAR-5 ovarian
[43] = test system: NCI-H23 lung
[44] = test system: EKVX NSCLC
[45] = test system: HT29 colon
[46] = test system: SN12C renal
[47] = test system: M14 melanoma
[48] = test system: SK-MEL-2 melanoma
[49] = test system: RPMI-8226 leukemia
[50] = test system: KM12 colon
[51] = test system: HCT-116 colon
[52] = test system: SK-OV-3 ovarian
[53] = test system: OVCAR-4 ovarian
[54] = test system: NCI-H226 lung
[55] = test system: IGROV1 ovarian
[56] = test system: OVCAR-8 ovarian
[57] = test system: SNB-19 CNS

Oc1cccc2ccc(-c3nnc(SCc4ccc(O)c5ncccc45)o3)nc12
707 nM: TGI [30]
7240 nM: TGI [12]
> 27100 nM: TGI [34]
79500 nM: TGI [47]
active: GI50 [1] 365 nM | GI50 [2] 120 nM | GI50 [4] 413 nM | GI50 [5] 39.3 nM | GI50 [7] 315 nM | GI50 [9] 181 nM | GI50 [10] 158 nM | GI50 [11] 175 nM | GI50 [12] 299 nM | GI50 [13] 103 nM | GI50 [15] 369 nM | GI50 [16] 110 nM | GI50 [17] 147 nM | GI50 [19] 419 nM | GI50 [20] 177 nM | GI50 [22] 326 nM | GI50 [24] 294 nM | GI50 [26] 338 nM | GI50 [27] 367 nM | GI50 [30] 173 nM | GI50 [31] 117 nM | GI50 [35] 226 nM | GI50 [36] 350 nM | GI50 [37] 275 nM | GI50 [39] 329 nM | GI50 [40] 204 nM | GI50 [43] 268 nM | GI50 [46] 280 nM | GI50 [47] 332 nM | GI50 [49] 266 nM | GI50 [51] 71 nM | GI50 [56] 302 nM | GI50 [57] 273 nM
4960 nM: TGI [29]
5540 nM: TGI [3]
> 25700 nM: TGI [7]
> 20700 nM: TGI [16]
inactive: GI50 [3] 440 nM | GI50 [6] 428 nM | GI50 [8] 467 nM | GI50 [14] 457 nM | GI50 [18] 696 nM | GI50 [21] 627 nM | GI50 [23] 1200 nM | GI50 [25] 1650 nM | GI50 [28] 492 nM | GI50 [29] 1730 nM | GI50 [32] 428 nM | GI50 [33] 452 nM | GI50 [34] 1990 nM | GI50 [38] 643 nM | GI50 [41] 583 nM | GI50 [42] 2170 nM | GI50 [44] 807 nM | GI50 [45] 4910 nM | GI50 [48] 513 nM | GI50 [50] 432 nM | GI50 [52] 761 nM | GI50 [53] 2000 nM | GI50 [54] 2410 nM | GI50 [55] 457 nM
> 22600 nM: TGI [20]
4510 nM: TGI [4]
19700 nM: TGI [8]
7320 nM: TGI [23]
5280 nM: TGI [52]
11400 nM: TGI [5]
3810 nM: TGI [1]
> 40200 nM: TGI [15]
1550 nM: TGI [22]
> 100000 nM: TGI [2] | TGI [6] | TGI [10] | TGI [11] | TGI [13] | TGI [14] | TGI [17] | TGI [18] | TGI [19] | TGI [21] | TGI [24] | TGI [25] | TGI [26] | TGI [28] | TGI [31] | TGI [32] | TGI [33] | TGI [35] | TGI [37] | TGI [38] | TGI [39] | TGI [40] | TGI [41] | TGI [42] | TGI [43] | TGI [44] | TGI [45] | TGI [46] | TGI [49] | TGI [50] | TGI [51] | TGI [53] | TGI [54] | TGI [55] | TGI [56] | TGI [57]
> 32400 nM: TGI [27]
2700 nM: TGI [48]
> 24500 nM: TGI [36]

Reference: PubChem BioAssay (NCI)
